The target in the test is Autotaxin (Homo sapiens, UniProt Q13822). Put plainly: Bioactivity Assay. The protocol:
Preparation and Treatment. Stock Solution Preparation. A 10 mM DMSO stock solution was formulated for each compound. A 30 mM DMSO stock solution was formulated for positive control HA130. Preservation: The DMSO stock solutions were stored at room temperature in a desiccator for a short period of time or at −20° C. for a long period of time. Preparation All compounds were serially 3-fold diluted in DMSO from 10 μM to the 10th concentration.A 1000× positive control (10 mM, HA130) and a 1000× negative control (100% DMSO) were prepared. The plates were shaken for 5 min. Preparation of 1× Reaction Buffer:>5× reaction buffer and cold water were mixed well in a volume ratio of 1:4. Preparation of 20 U/mL Choline Oxidase Stock Solution:1 tube of choline oxide in a kit was dissolved in 1× reaction buffer. The aliquots were frozen at −20° C. Preparation of 200 U/mL Horseradish Peroxidase (HRP) Stock Solution:1 tube of HRP in a kit was dissolved in 1 mL of 1× reaction buffer. The aliquots were frozen at −20° C. Preparation of 20 mM Amplex Red Reagent (for Detection) Stock Solution Amplex Red reagent and DMSO were equilibrated at room temperature.

In general, IC50 refers to the concentration at which inhibition is half-maximal.

With `CCc1nn2ccc(N3CCN(CC(=O)N4CC(O)C4)CC3)nc2c1N(C)c1nc(-c2ccc(F)cc2)c(C#N)s1` [US11591342, Compound S-0041], inhibition was half-maximal at 39 nM (IC50).

Turning to `CCn1nc2ncc(N3CCN(CC(=O)N4CC(O)C4)CC3)cc2c1N(C)c1nc(-c2ccc(F)cc2)c(C#N)s1` [US11591342, Compound S-0043], the concentration for half-maximal inhibition (IC50) worked out at 648 nM. This IC50 lies about 17-fold higher than the previous one.

In turn, `CCn1nc2cnc(N3CCN(CC(=O)N4CC(O)C4)CC3)cc2c1N(C)c1nc(-c2ccc(F)cc2)c(C#N)s1` [US11591342, Compound S-0044] gave an IC50 of 5530 nM.

Values taken from BindingDB's records for patent US11591342 (Suzhou Sinovent Pharmaceuticals, 2023).
